Source: patent US20090105270A1, “Kinase inhibition and anticancer therapy” (priority 2007, published 2009)

Assays:
[1] = biological target: T1, CDK9/cyclin T1(h) (Homo sapiens, UniProt P50750); assay: Upstate kinase activity inhibition assay CDK9/cyclin T1(h); type: biochemical; conditions: 40 min; read-out: percentage of enzyme activity that remains
T1 construct: purchased Upstate (KinaseProfiler service)

[2] = biological target: DMPK(h) (Homo sapiens, UniProt Q09013); assay: Upstate kinase activity inhibition assay DMPK(h); conditions: 40 min, read-out: percentage of enzyme activity that remains
[3] = biological target: T2, PKBγ(h) (Homo sapiens, UniProt Q9Y243); assay: Upstate kinase activity inhibition assay PKBγ(h); type: biochemical; conditions: 40 min; read-out: percentage of enzyme activity that remains
T2 construct: purchased Upstate (KinaseProfiler service)

[4] = biological target: TBK1(h) (Homo sapiens, UniProt Q9UHD2); assay: Upstate kinase activity inhibition assay TBK1(h); conditions: 40 min, read-out: percentage of enzyme activity that remains
[5] = biological target: FGFR3(h) (Homo sapiens, UniProt P22607); assay: Upstate kinase activity inhibition assay FGFR3(h); conditions: 40 min, read-out: percentage of enzyme activity that remains
[6] = biological target: CHK2(h) (Homo sapiens, UniProt O96017); assay: Upstate kinase activity inhibition assay CHK2(h); conditions: 40 min, read-out: percentage of enzyme activity that remains
[7] = biological target: T3, EphA5(h) (Homo sapiens, UniProt P54756); assay: Upstate kinase activity inhibition assay EphA5(h); type: biochemical; conditions: 4 μM Compound E
T3 construct: purchased Upstate (KinaseProfiler service)

[8] = biological target: T4, Pyk2(h) (Homo sapiens, UniProt Q14289); assay: Upstate kinase activity inhibition assay Pyk2(h); type: biochemical; conditions: 40 min; read-out: percentage of enzyme activity that remains
T4 construct: purchased Upstate (KinaseProfiler service)

[9] = biological target: GSK3α(h) (Homo sapiens, UniProt P49840); assay: Upstate kinase activity inhibition assay GSK3α(h); conditions: 40 min, read-out: percentage of enzyme activity that remains
[10] = biological target: T5, MAPK2(h) (Homo sapiens, UniProt P28482); assay: Upstate kinase activity inhibition assay MAPK2(h); type: biochemical; conditions: 40 min; read-out: percentage of enzyme activity that remains
T5 construct: purchased Upstate (KinaseProfiler service)

[11] = biological target: Fms(h) (Homo sapiens, UniProt P07333); assay: Upstate kinase activity inhibition assay Fms(h); conditions: 40 min, read-out: percentage of enzyme activity that remains
[12] = biological target: T6, NEK6(h) (Homo sapiens, UniProt Q9HC98); assay: Upstate kinase activity inhibition assay NEK6(h); type: biochemical; conditions: 40 min; read-out: percentage of enzyme activity that remains
T6 construct: purchased Upstate (KinaseProfiler service)

[13] = biological target: T7, IRAK4(h) (Homo sapiens, UniProt Q9NWZ3); assay: Upstate kinase activity inhibition assay IRAK4(h); type: biochemical; conditions: 4 μM Compound E
T7 construct: purchased Upstate (KinaseProfiler service)

[14] = biological target: Flt3(D835Y)(h) (Homo sapiens, UniProt P36888, D835Y); assay: Upstate kinase activity inhibition assay Flt3(D835Y)(h); conditions: 40 min, read-out: percentage of enzyme activity that remains
[15] = biological target: T8, PrKX(h) (Homo sapiens, UniProt P51817); assay: Upstate kinase activity inhibition assay PrKX(h); type: biochemical; conditions: 40 min; read-out: percentage of enzyme activity that remains
T8 construct: purchased Upstate (KinaseProfiler service)

[16] = biological target: NEK7(h) (Homo sapiens, UniProt Q8TDX7); assay: Upstate kinase activity inhibition assay NEK7(h); type: biochemical; conditions: 40 min; read-out: percentage of enzyme activity that remains
[17] = biological target: T9, ZAP-70(h) (Homo sapiens, UniProt P43403); assay: Upstate kinase activity inhibition assay ZAP-70(h); type: biochemical; conditions: 40 min; read-out: percentage of enzyme activity that remains
T9 construct: purchased Upstate (KinaseProfiler service)

[18] = biological target: MELK(h) (Homo sapiens, UniProt Q14680); assay: Upstate kinase activity inhibition assay MELK(h); conditions: 40 min, read-out: percentage of enzyme activity that remains
[19] = biological target: NEK2(h) (Homo sapiens, UniProt P51955); assay: Upstate kinase activity inhibition assay NEK2(h); conditions: 40 min, read-out: percentage of enzyme activity that remains
[20] = biological target: MAPK1(h) (Homo sapiens, UniProt P27361); assay: Upstate kinase activity inhibition assay MAPK1(h); conditions: 40 min, read-out: percentage of enzyme activity that remains
[21] = biological target: HIPK3(h) (Homo sapiens, UniProt Q9H422); assay: Upstate kinase activity inhibition assay HIPK3(h); conditions: 40 min, read-out: percentage of enzyme activity that remains
[22] = biological target: T10, WNK2(h) (Homo sapiens, UniProt Q9Y3S1); assay: Upstate kinase activity inhibition assay WNK2(h); type: biochemical; conditions: 40 min; read-out: percentage of enzyme activity that remains
T10 construct: purchased Upstate (KinaseProfiler service)

[23] = biological target: MLK1(h) (Homo sapiens, UniProt P80192); assay: Upstate kinase activity inhibition assay MLK1(h); conditions: 40 min, read-out: percentage of enzyme activity that remains
[24] = biological target: T11, LIMK1(h) (Homo sapiens, UniProt P53667); assay: Upstate kinase activity inhibition assay LIMK1(h); type: biochemical; conditions: 40 min; read-out: percentage of enzyme activity that remains
T11 construct: purchased Upstate (KinaseProfiler service)

[25] = biological target: PKCθ(h) (Homo sapiens, UniProt Q04759); assay: Upstate kinase activity inhibition assay PKCθ(h); conditions: 40 min, read-out: percentage of enzyme activity that remains
[26] = biological target: CaMKIV(h) (Homo sapiens, UniProt Q16566); assay: Upstate kinase activity inhibition assay CaMKIV(h); conditions: 40 min, read-out: percentage of enzyme activity that remains
[27] = biological target: PKA(h) (Homo sapiens, UniProt P17612); assay: Upstate kinase activity inhibition assay PKA(h); type: biochemical; conditions: 40 min; read-out: percentage of enzyme activity that remains
[28] = biological target: T12, SAPK3(h) (Homo sapiens, UniProt P53778); assay: Upstate kinase activity inhibition assay SAPK3(h); type: biochemical; conditions: 40 min; read-out: percentage of enzyme activity that remains
T12 construct: purchased Upstate (KinaseProfiler service)

[29] = biological target: NEK3(h) (Homo sapiens, UniProt P51956); assay: Upstate kinase activity inhibition assay NEK3(h); conditions: 40 min, read-out: percentage of enzyme activity that remains
[30] = biological target: EphB2(h) (Homo sapiens, UniProt P29323); assay: Upstate kinase activity inhibition assay EphB2(h)
Sequence of EphB2(h) (P29323 19-1055): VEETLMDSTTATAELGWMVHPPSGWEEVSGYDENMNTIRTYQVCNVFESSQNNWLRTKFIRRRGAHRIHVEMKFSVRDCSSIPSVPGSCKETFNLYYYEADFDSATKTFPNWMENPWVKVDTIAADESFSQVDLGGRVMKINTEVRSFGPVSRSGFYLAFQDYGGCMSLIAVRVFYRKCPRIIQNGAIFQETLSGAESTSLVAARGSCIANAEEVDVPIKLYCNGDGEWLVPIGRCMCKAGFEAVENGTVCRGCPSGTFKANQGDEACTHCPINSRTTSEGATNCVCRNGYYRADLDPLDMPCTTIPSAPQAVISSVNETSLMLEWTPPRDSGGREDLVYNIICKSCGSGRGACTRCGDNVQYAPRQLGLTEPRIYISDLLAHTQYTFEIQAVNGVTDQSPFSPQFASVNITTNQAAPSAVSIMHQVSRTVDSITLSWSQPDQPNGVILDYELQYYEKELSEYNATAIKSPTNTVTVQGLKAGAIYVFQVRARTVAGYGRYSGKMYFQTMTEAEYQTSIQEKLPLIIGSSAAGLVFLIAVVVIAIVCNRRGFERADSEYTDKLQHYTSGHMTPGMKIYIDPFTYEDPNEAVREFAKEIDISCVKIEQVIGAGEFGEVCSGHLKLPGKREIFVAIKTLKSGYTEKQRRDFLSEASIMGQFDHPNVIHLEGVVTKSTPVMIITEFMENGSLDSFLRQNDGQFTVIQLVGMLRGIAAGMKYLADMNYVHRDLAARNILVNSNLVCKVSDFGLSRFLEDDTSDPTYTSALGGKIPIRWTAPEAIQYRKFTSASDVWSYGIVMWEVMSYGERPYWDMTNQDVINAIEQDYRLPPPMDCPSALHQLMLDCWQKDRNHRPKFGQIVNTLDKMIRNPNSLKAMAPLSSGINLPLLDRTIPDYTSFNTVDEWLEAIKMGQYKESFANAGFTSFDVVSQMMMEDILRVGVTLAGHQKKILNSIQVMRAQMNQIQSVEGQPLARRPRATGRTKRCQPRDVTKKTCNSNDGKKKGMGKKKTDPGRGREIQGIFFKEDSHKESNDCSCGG

Sequence of NEK2(h) (P51955 whole entry): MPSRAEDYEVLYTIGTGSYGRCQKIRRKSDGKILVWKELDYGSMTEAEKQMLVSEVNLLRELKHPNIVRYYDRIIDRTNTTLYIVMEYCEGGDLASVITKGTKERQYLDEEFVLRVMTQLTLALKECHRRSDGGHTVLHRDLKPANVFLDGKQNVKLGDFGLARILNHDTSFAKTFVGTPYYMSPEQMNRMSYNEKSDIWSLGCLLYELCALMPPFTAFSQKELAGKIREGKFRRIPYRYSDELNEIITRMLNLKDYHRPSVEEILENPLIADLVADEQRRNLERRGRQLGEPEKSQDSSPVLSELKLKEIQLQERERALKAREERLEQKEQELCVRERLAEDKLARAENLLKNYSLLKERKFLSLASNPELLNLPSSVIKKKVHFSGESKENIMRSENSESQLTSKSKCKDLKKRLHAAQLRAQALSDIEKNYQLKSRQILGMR
T6 sequence (Q9HC98 whole entry): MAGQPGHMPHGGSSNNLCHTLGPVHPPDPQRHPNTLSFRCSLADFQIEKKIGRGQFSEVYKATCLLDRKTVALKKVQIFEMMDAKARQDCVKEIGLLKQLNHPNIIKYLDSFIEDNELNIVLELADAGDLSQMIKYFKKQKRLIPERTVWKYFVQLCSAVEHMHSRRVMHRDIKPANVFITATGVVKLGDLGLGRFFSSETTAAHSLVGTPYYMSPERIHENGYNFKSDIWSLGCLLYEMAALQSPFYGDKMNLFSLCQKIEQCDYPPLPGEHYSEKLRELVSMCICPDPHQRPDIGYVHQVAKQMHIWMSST
Sequence of TBK1(h) (Q9UHD2 whole entry): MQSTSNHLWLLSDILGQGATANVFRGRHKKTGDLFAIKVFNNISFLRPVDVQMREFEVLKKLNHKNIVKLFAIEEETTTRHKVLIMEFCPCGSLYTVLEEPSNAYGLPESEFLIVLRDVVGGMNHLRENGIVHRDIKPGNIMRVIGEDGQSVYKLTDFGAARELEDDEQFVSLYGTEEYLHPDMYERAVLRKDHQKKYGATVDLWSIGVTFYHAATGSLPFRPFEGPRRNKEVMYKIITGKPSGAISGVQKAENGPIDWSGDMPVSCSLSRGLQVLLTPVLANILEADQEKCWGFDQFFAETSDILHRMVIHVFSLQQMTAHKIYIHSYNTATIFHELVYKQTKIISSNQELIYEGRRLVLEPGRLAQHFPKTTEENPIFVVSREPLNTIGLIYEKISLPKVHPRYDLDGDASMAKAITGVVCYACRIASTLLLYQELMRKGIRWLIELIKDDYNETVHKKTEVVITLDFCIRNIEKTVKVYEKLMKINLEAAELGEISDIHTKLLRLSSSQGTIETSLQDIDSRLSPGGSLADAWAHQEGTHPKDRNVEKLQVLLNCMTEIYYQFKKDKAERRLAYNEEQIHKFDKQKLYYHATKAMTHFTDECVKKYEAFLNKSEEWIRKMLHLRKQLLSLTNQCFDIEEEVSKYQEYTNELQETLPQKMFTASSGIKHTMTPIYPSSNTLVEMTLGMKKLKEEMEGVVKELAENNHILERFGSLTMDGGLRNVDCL
Sequence of PKCθ(h) (Q04759 whole entry): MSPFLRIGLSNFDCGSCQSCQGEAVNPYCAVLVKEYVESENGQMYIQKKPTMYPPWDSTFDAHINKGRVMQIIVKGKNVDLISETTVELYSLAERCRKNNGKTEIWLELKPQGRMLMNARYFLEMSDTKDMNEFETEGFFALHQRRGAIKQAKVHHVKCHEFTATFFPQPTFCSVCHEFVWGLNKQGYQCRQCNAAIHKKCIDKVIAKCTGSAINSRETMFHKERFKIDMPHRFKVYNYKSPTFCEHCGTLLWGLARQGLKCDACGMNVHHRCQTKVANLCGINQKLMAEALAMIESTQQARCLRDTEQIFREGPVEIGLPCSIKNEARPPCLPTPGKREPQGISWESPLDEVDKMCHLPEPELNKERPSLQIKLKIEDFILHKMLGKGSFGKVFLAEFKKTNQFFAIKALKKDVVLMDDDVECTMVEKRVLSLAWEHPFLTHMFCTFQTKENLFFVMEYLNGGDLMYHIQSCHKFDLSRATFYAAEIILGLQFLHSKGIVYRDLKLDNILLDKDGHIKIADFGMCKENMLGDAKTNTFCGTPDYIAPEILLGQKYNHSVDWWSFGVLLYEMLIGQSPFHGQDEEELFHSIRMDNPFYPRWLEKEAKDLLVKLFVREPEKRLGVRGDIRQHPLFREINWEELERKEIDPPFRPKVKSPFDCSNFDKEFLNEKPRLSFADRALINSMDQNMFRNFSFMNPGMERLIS
Sequence of HIPK3(h) (Q9H422 whole entry): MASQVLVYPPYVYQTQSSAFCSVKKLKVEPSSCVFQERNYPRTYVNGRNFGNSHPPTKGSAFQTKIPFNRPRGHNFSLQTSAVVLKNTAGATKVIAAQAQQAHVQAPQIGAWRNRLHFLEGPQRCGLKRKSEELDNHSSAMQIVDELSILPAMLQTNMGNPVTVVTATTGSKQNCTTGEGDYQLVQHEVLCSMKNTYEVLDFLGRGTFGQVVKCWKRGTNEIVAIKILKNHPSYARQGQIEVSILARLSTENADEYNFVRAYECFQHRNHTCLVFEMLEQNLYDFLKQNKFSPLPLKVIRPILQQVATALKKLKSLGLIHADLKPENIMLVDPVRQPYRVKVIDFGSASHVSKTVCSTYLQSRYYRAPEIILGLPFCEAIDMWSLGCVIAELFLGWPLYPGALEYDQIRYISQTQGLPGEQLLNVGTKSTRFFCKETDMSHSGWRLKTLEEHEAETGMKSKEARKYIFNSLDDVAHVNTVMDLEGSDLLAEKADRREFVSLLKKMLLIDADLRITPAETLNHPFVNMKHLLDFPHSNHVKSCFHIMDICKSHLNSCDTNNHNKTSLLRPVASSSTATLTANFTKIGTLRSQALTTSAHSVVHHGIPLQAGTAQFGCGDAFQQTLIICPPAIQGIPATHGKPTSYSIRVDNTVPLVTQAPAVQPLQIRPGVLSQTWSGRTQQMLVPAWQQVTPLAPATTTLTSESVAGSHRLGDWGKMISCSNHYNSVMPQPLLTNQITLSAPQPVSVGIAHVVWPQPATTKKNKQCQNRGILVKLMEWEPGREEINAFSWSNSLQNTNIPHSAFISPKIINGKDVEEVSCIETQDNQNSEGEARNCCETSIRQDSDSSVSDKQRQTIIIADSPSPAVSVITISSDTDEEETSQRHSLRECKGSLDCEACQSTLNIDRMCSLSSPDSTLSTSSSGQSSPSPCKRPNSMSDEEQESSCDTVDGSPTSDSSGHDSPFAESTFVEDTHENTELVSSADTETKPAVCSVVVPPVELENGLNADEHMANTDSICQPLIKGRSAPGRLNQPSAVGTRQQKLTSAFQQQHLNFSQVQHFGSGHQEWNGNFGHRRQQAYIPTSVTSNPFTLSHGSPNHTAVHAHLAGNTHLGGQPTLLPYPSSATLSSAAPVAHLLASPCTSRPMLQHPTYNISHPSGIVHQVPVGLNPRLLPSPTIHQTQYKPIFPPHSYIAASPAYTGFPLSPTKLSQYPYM
Sequence of MAPK1(h) (P27361 whole entry): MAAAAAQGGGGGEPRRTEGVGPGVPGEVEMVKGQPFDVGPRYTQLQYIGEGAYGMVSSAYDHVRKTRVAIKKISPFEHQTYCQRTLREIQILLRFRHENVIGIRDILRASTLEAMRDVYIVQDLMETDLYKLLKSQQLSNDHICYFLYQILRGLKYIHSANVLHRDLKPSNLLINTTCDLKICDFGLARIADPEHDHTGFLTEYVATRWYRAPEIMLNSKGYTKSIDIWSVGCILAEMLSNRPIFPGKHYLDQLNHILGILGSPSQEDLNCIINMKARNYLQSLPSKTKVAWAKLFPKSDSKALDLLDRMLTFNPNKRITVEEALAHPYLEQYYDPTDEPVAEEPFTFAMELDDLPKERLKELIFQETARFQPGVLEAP

Work on `Cc1cc(Nc2cc(N3CCN(C)CC3)nc(Sc3ccc(NC(=O)C4CC4)cc3)n2)n[nH]1` [Compound E, Cyclopropane carboxylic acid {4-[4-(4-methyl-piperazin-1-yl)-6-(5-methyl-2H-pyrazol-3-ylamino)-pyrimidin-2-ylsulphanyl]-phenyl}-amide] yielded a remaining activity at 0.2 µM [1] of 80%, a remaining activity at 4 µM [1] of 84% and a remaining activity at 0.2 µM [2] of 95%. The remaining activity at 4 µM [2] was 103%, the remaining activity at 0.2 µM [3] was 89% and the remaining activity at 4 µM [3] was 83%. For the same compound, the remaining activity at 0.2 µM [4] was 106%, the remaining activity at 4 µM [4] was 57% and the remaining activity at 0.2 µM [5] was 87%. The remaining activity at 4 µM [5] was 29%, the remaining activity at 0.2 µM [6] was 99% and the remaining activity at 4 µM [6] was 89%. For the same compound, the “percentage of enzyme activity that remains” value [7] was 57%, the remaining activity at 0.2 µM [8] was 100% and the remaining activity at 4 µM [8] was 59%. It also gave a remaining activity at 0.2 µM [9] of 106%, a remaining activity at 4 µM [9] of 102% and a remaining activity at 0.2 µM [10] of 92%. The remaining activity at 0.2 µM [11] was 139%, the remaining activity at 4 µM [11] was 54% and the remaining activity at 0.2 µM [12] was 86%. For the same compound, the remaining activity at 4 µM [12] was 85%, the “percentage of enzyme activity that remains” value [13] was 90% and the remaining activity at 0.2 µM [14] was 50%. The remaining activity at 4 µM [14] was 7%, the remaining activity at 0.2 µM [15] was 97% and the remaining activity at 4 µM [15] was 96%. For the same compound, the remaining activity at 0.2 µM [16] was 84%, the remaining activity at 4 µM [16] was 83% and the remaining activity at 0.2 µM [17] was 75%. It also gave a remaining activity at 4 µM [17] of 64%, a remaining activity at 0.2 µM [18] of 56% and a remaining activity at 4 µM [18] of 13%. It also gave a remaining activity at 0.2 µM [19] of 112%, a remaining activity at 4 µM [19] of 109% and a remaining activity at 0.2 µM [20] of 94%. The remaining activity at 4 µM [20] was 93%, the remaining activity at 0.2 µM [21] was 112% and the remaining activity at 4 µM [21] was 95%. It also gave a remaining activity at 0.2 µM [22] of 107%, a remaining activity at 4 µM [22] of 90% and a remaining activity at 0.2 µM [23] of 54%. It also gave a remaining activity at 4 µM [23] of 9%, a remaining activity at 0.2 µM [24] of 71% and a remaining activity at 4 µM [24] of 15%. It also gave a remaining activity at 0.2 µM [25] of 25%, a remaining activity at 4 µM [25] of 35% and a remaining activity at 0.2 µM [26] of 100%. It also gave a remaining activity at 4 µM [26] of 99%, a remaining activity at 0.2 µM [27] of 100% and a remaining activity at 4 µM [27] of 102%. For the same compound, the remaining activity at 0.2 µM [28] was 132%, the remaining activity at 4 µM [28] was 115% and the remaining activity at 0.2 µM [29] was 102%. For the same compound, the remaining activity at 4 µM [29] was 125%, the “percentage of enzyme activity that remains” value ([30]; 0.2 μM Compound E) was 121% and the “percentage of enzyme activity that remains” value ([30]; 4 μM Compound E) was 107%.
